Results on 1 molecule are retold here after patent US10918610B2, “Compounds and methods of promoting myelination” (Case Western Reserve University, priority 2017, dated 2021).

Experiment [1] deals with T1, EBP (Mus musculus, UniProt P70245).
T1 construct: endogenous in cells; host or cells: mouse EpiSC-derived oligodendrocyte progenitor cells (EpiSC5 line)
T1 sequence (P70245 1-230): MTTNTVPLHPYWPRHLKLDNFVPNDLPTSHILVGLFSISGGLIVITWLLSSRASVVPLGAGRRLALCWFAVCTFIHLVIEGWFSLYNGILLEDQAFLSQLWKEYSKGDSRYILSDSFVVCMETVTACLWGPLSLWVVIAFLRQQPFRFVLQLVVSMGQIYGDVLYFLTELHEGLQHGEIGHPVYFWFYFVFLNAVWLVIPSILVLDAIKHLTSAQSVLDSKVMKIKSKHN
The experiment in a line: GC/MS-based sterol profiling in EpiSC-derived OPCs (EBP inhibition). It is filed as cell-based. As for the experimental part: EpiSC-derived OPCs were plated at one million cells per well in PDL- and laminin-coated six well plates with differentiation media. After 24 hours, cells were dissociated with Accutase, rinsed with saline, and cell pellets were frozen. For sterol analyses, cells were lysed in methanol (Sigma-Aldrich) with agitation for 30 minutes and cell debris removed by centrifugation at 10,000 rpm for 15 min. Cholesterol-d7 standard (25,26,26,26,27,27,27-^2H7-cholesterol, Cambridge Isotope Laboratories) was added before drying under nitrogen stream and derivatization with 55 al of bis(trimethylsilyl)trifluoroacetamide/trimethylchlorosilane to form trimethylsilyl derivatives. Following derivatization at 60° C. for 20 minutes, 1 μl was analyzed by gas chromatography/mass spectrometry using an Agilent 5973 Network Mass Selective Detector equipped with a 6890 gas chromatograph system and a HP-5MS capillary column ([…]). Samples were injected in splitless mode and analyzed using electron impact ionization. Ion fragment peaks were integrated to calculate sterol abundance, and quantitation was relative to cholesterol-d7. The following m/z ion fragments were used to quantitate each metabolite: cholesterol-d7 (465), FF-Mas (482), cholesterol (368), zymostenol (458), zymosterol (456), desmosterol (456, 343), 7-dehydrocholesterol (456, 325), lanosterol (393), lathosterol (458), 14-dehydrozymostenol (456). […] After derivatization, 1 al was analyzed by gas chromatography/mass spectrometry using an Agilent 5973 Network Mass Selective Detector equipped with a 6890 gas chromatograph system and a HP-5MS capillary column ([…]). Samples were analyzed in full scan mode using electron impact ionization; ion fragment peaks were integrated to calculate sterol abundance, and quantitation was relative to cholesterol-d7. The following ion fragments were used to quantitate each metabolite: cholesterol-d7 (465), cholesterol (368)(Sigma Aldrich), zymostenol (458), All standards were obtained from Avanti Polar Lipids unless otherwise indicated. […]

Experiment [2] concerns newly myelinated fibers within the spinal cord. Description: LPC-induced focal demyelination in the dorsal column of the spinal cord. It is filed as in vivo, C57BL/6 female mice. The note with it: 25 mg/kg intraperitoneally daily, days 4 to 13 post laminectomy, versus vehicle. As for the experimental part: Focal demyelination in the dorsal column of the spinal cord was induced by the injection of 1% LPC solution. 12 week old C57BL/6 female mice were anesthetized using isoflurane and T10 laminectomies were performed. 1 μl of 1% LPC was infused into the dorsal column at a rate of 15 al/hour. At day 4, animals were randomized into treatment groups prior to treatment (2 animals were excluded due to surgical complications). […] Drugs were dissolved in DMSO and ethanol or corn oil and then diluted with sterile saline for injections. This experiment was done in a blinded manner: compounds were coded to ensure the researchers performing the experiments were unaware of the treatment being administered to each animal. […] Mice were anesthetized using ketamine/xylazine rodent cocktail and then euthanized by transcardial perfusion with 4% PFA, 2% glutaraldehyde, and 0.1 M sodium cacodylate. […] The number of myelinated axons per unit areas was counted from sections in the middle of each lesion and then averaged over each treatment group. […]
Focal demyelination in the dorsal column of the spinal cord was induced by the injection of 1% LPC solution. […] The number of myelinated axons per unit area was counted from sections obtained from the middle of each lesion and then averaged over each treatment group. All sections within the lesion area were scored. […]

[3] abbreviates: 100 nm, 24 hours, versus DMSO control.

As for `CCN(C/C=C\c1ccc(C2CCCCC2)c(Cl)c1)C1CCCCC1` [Cis-N-cyclohexyl-N-ethyl-3-(3-chloro-4-cyclohexylphenyl)prop-2-enylamine], the “zymostenol in mouse OPCs (FIG. 5)” value in experiment [1] (10 nM, 30 nM, 100 nM) was “accumulate zymostenol”. In experiment [1] (setting [3]), the “cholesterol in OPCs (FIG. 1B)” value was “produce lesser amounts of cholesterol” and the “zymostenol in OPCs (FIG. 1B)” value is “accumulate zymostenol”. For the same molecule, in experiment [2], the “myelin formation in the demyelinated lesion, electron microscopy (FIG. 7C)” value is recorded as “new myelin formation” and the “number of toluidine Blue-stained newly myelinated fibers within the spinal cord (FIG. 7F)” value is on record as “significantly increased”.
